Columns and labels:
mLysRS = mLysRS (Homo sapiens, UniProt Q15046); test: tRNA aminoacylation assay; assay type: biochemical; conditions: drug added up to 1 mM
Description: Initial rates of tRNA aminoacylation were measured at 25°C in 0.1 mL of 20 mM Imidazole-HCl buffer (pH 7.5), 100 mM KCl, 0.5 mM DTT, 12 mM MgCl2, 2 mM ATP, 180 µM ^14C-labeled lysine (NEN; 16.66 Ci/mol), and saturating amounts of global yeast tRNA ([30]). The incubation mixture contained catalytic amounts (2 nM) of mLysRS appropriately diluted in 10 mM Tris-HCl (pH 7.5), 10 mM 2-mercaptoethanol, containing bovine serum albumin at 4 mg/mL. Inhibitors were added at final concentrations ranging from 3.9 to 1,000 µM. One unit of activity is the amount of enzyme producing 1 nmol of lysine-tRNA^Lys/min, at 25°C.
Fig. S5. Effect of inhibitors on mLysRS activity. The tRNA-aminoacylation activity of mLysRS
was determined in the presence of increasing concentrations of the drugs. Two independent
experiments were performed and standard deviations are shown.
Fig. 6. Raw data of quantification of minus-strand strong stop viral DNA and viral RNA by
digital PCR from viruses recovered after 72 h incubation in the presence of 10 µM of the drugs.

[1] = test system: HIV-1 NL4-3 virus particles; test: digital PCR / RT-dPCR of minus-strand strong stop cDNA and viral RNA in particles; assay type: cell-based; conditions: 10 µM drug, 72 and 96 h after infection
From the text: We used digital RT-PCR and digital PCR to determine the viral mRNA and minus-strand strong stop viral cDNA content of the particles (Fig. 7; Fig. S6). The amount of early viral cDNA produced in the HIV-1 particles is a measure of the efficiency of the initiation step of reverse transcription, which requires the packaging of tRNA3^Lys at the budding step, the primer for cDNA synthesis.
Fig 7 Effect of drugs on viral synthesis of minus-strand strong stop cDNA. Viruses were harvested from the culture medium after 72 (red) or 96 h (blue) of infection of MT4 cells with NL4-3 viruses. Minus-strand strong stop viral DNA and viral RNA (vRNA) were quantified by digital PCR and RT-dPCR, respectively. Viruses were harvested from cultures grown in the presence of 10 µM of azelastine (Aze), lacidipine (Lac), or cilnidipine (Cil), or H2O or DMSO as controls. Values and the associated standard deviations (n = 3) are expressed as the ratios of the values obtained for the H2O or DMSO controls. […].
MT4 cells (2 × 10^6 cells) were infected with the NL4-3 viruses. After 4–5 h of infection at 37°C, cells were twice washed with PBS, incubated 5 min at 37°C in 0.25% trypsin-EDTA solution (Gibco) to eliminate viruses remaining in the medium, incubated 5 min at 37°C in complete RPMI medium, twice washed with PBS, resuspended in RPMI medium at a cell density of 200 × 10^3 cells/mL and incubated with 10 µM of azelastine (25 mM stock solution in H20), or lacidipine and cilnidipine (25 mM stock solution in DMSO). A second aliquot of the inhibitors was added to the culture medium 48 h after infection. […] All RNA and DNA quantifications were performed by digital PCR and RT-qPCR on a QIAcuity instrument (QIAGEN) using 26K 24-well nanoplates and the QIAcuity Probe PCR and One-Step Viral RT-PCR kits. Primers and probes were 5′-[…], 5′-[…], and 5′-[…] for the quantification of minus-strand strong-stop cDNA, and 5′-[…], 5′-[…], and 5′-[…] CGT for viral RNA quantification.

Sequence of mLysRS (Q15046 31-625 isoform Q15046-2): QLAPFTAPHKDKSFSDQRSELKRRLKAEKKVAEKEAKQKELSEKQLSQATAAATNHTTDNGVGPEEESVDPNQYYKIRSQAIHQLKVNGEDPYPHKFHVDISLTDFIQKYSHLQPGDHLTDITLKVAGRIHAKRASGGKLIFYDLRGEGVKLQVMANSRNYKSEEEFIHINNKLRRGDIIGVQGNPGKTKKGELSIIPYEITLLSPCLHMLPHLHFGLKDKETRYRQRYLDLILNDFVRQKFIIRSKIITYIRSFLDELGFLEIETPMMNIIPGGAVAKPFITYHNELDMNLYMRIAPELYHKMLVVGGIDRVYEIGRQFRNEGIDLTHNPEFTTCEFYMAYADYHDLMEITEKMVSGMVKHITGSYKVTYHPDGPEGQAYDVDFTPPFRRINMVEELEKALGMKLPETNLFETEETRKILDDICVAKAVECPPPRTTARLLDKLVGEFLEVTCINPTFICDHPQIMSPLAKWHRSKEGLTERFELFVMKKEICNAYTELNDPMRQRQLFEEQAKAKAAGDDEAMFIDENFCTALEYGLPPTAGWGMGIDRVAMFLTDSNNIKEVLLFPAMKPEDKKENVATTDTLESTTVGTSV

CN1CCCC(n2nc(Cc3ccc(Cl)cc3)c3ccccc3c2=O)CC1 (centres unmarked) [azelastine]
inhibition of Lysyl-tRNA^Lys synthesis (mLysRS): did not inhibit
minus-strand strong stop cDNA in viruses, normalized to viral RNA [1]: significantly reduced
